In patent US20230157952A1, “METHOD FOR IMPROVING THE STABILITY OF A PHARMACEUTICAL COMPOSITION COMPRISING A HIGH PENETRATION DRUG, AND THE PHARMACEUTICAL COMPOSITION OBTAINED THEREFROM” (Techfields Inc., priority 2020, published 2023):

Experiment: Effect of solvent on the stability of the solution (purity at various pH values and temperature)
Format: physicochemical
Details: 7% solution

Q: What does the source list for `CCN(CC)CCOC(=O)c1ccccc1OC(C)=O.Cl`?
A: Purity (%) at day 14 (60° C.) (solvent 25% ethanol, pH 8.0, day 14, 60° C.): 0%; Purity(%) at day 0 (solvent 50% ethanol, pH 1.0, day 0): 99.2 ± 0.3%; Purity(%) at day 14 (5° C.) (solvent 50% ethanol, pH 1.0, day 14, 5° C.): 92.4 ± 0.3%; Purity(%) at day 14 (25° C.) (solvent 50% ethanol, pH 1.0, day 14, 25° C.): 63.8 ± 0.4%; Purity(%) at day 14 (40° C.) (solvent 50% ethanol, pH 1.0, day 14, 40° C.): 0%; Purity (%) at day 14 (60° C.) (solvent 50% ethanol, pH 1.0, day 14, 60° C.): 0%; Purity(%) at day 0 (solvent 50% ethanol, pH 2.0, day 0): 99.5 ± 0.2%; Purity(%) at day 14 (5° C.) (solvent 50% ethanol, pH 2.0, day 14, 5° C.): 96.9 ± 0.3%; Purity(%) at day 14 (25° C.) (solvent 50% ethanol, pH 2.0, day 14, 25° C.): 84.7 ± 0.3%; Purity(%) at day 14 (40° C.) (solvent 50% ethanol, pH 2.0, day 14, 40° C.): 0%; Purity (%) at day 14 (60° C.) (solvent 50% ethanol, pH 2.0, day 14, 60° C.): 0%; Purity(%) at day 0 (solvent 50% ethanol, pH 3.0, day 0): 99.6 ± 0.3%; Purity(%) at day 14 (25° C.) (solvent 50% ethanol, pH 3.0, day 14, 25° C.): 89.5 ± 0.3%; Purity(%) at day 14 (40° C.) (solvent 50% ethanol, pH 3.0, day 14, 40° C.): 3.2 ± 0.3%; Purity (%) at day 14 (60° C.) (solvent 50% ethanol, pH 3.0, day 14, 60° C.): 0%; Purity(%) at day 0 (solvent 50% ethanol, pH 3.7, day 0): 99.7 ± 0.2%; Purity(%) at day 14 (5° C.) (solvent 50% ethanol, pH 3.7, day 14, 5° C.): 99.1 ± 0.3%; Purity(%) at day 14 (25° C.) (solvent 50% ethanol, pH 3.7, day 14, 25° C.): 96.6 ± 0.2%; Purity(%) at day 14 (40° C.) (solvent 50% ethanol, pH 3.7, day 14, 40° C.): 16.9 ± 0.3%; Purity (%) at day 14 (60° C.) (solvent 50% ethanol, pH 3.7, day 14, 60° C.): 0%; Purity(%) at day 0 (solvent 50% ethanol, pH 4.0, day 0): 99.8 ± 0.2%; Purity(%) at day 14 (5° C.) (solvent 50% ethanol, pH 4.0, day 14, 5° C.): 99.2 ± 0.3%; Purity(%) at day 14 (25° C.) (solvent 50% ethanol, pH 4.0, day 14, 25° C.): 97.2 ± 0.3%; Purity(%) at day 14 (40° C.) (solvent 50% ethanol, pH 4.0, day 14, 40° C.): 16.8 ± 0.4%; Purity (%) at day 14 (60° C.) (solvent 50% ethanol, pH 4.0, day 14, 60° C.): 0%; Purity(%) at day 0 (solvent 50% ethanol, pH 4.3, day 0): 99.7 ± 0.2%; Purity(%) at day 14 (5° C.) (solvent 50% ethanol, pH 4.3, day 14, 5° C.): 99.1 ± 0.2%; Purity(%) at day 14 (25° C.) (solvent 50% ethanol, pH 4.3, day 14, 25° C.): 97.2 ± 0.2%; Purity(%) at day 14 (40° C.) (solvent 50% ethanol, pH 4.3, day 14, 40° C.): 14.9 ± 0.3%; Purity (%) at day 14 (60° C.) (solvent 50% ethanol, pH 4.3, day 14, 60° C.): 0%; Purity(%) at day 0 (solvent 50% ethanol, pH 4.6, day 0): 99.7 ± 0.3%; Purity(%) at day 14 (25° C.) (solvent 50% ethanol, pH 4.6, day 14, 25° C.): 96.9 ± 0.3%; Purity(%) at day 14 (40° C.) (solvent 50% ethanol, pH 4.6, day 14, 40° C.): 4.9 ± 0.3%; Purity (%) at day 14 (60° C.) (solvent 50% ethanol, pH 4.6, day 14, 60° C.): 0%; Purity(%) at day 0 (solvent 50% ethanol, pH 5.0, day 0): 99.6 ± 0.2%; Purity(%) at day 14 (25° C.) (solvent 50% ethanol, pH 5.0, day 14, 25° C.): 93.1 ± 0.3%; Purity(%) at day 14 (40° C.) (solvent 50% ethanol, pH 5.0, day 14, 40° C.): 2.3 ± 0.2%; Purity (%) at day 14 (60° C.) (solvent 50% ethanol, pH 5.0, day 14, 60° C.): 0%; Purity(%) at day 0 (solvent 50% ethanol, pH 6.0, day 0): 99.5 ± 0.3%; Purity(%) at day 14 (5° C.) (solvent 50% ethanol, pH 6.0, day 14, 5° C.): 92.9 ± 0.4%; Purity(%) at day 14 (25° C.) (solvent 50% ethanol, pH 6.0, day 14, 25° C.): 85.5 ± 0.3%; Purity(%) at day 14 (40° C.) (solvent 50% ethanol, pH 6.0, day 14, 40° C.): 0%; Purity (%) at day 14 (60° C.) (solvent 50% ethanol, pH 6.0, day 14, 60° C.): 0%; Purity(%) at day 0 (solvent 50% ethanol, pH 7.0, day 0): 99.4 ± 0.3%; Purity(%) at day 14 (5° C.) (solvent 50% ethanol, pH 7.0, day 14, 5° C.): 88.2 ± 0.3%; Purity(%) at day 14 (25° C.) (solvent 50% ethanol, pH 7.0, day 14, 25° C.): 61.9 ± 0.4%; Purity(%) at day 14 (40° C.) (solvent 50% ethanol, pH 7.0, day 14, 40° C.): 0%; Purity (%) at day 14 (60° C.) (solvent 50% ethanol, pH 7.0, day 14, 60° C.): 0%; Purity(%) at day 0 (solvent 50% ethanol, pH 8.0, day 0): 99.2 ± 0.3%; Purity(%) at day 14 (5° C.) (solvent 50% ethanol, pH 8.0, day 14, 5° C.): 60.3 ± 0.4%; Purity(%) at day 14 (25° C.) (solvent 50% ethanol, pH 8.0, day 14, 25° C.): 23.9 ± 0.4%; Purity(%) at day 14 (40° C.) (solvent 50% ethanol, pH 8.0, day 14, 40° C.): 0%; Purity (%) at day 14 (60° C.) (solvent 50% ethanol, pH 8.0, day 14, 60° C.): 0%; Purity(%) at day 0 (solvent water, pH 1.0, day 0): 99.1 ± 0.3%; Purity(%) at day 14 (5° C.) (solvent water, pH 1.0, day 14, 5° C.): 90.8 ± 0.3%; Purity(%) at day 14 (25° C.) (solvent water, pH 1.0, day 14, 25° C.): 62.2 ± 0.4%; Purity(%) at day 14 (40° C.) (solvent water, pH 1.0, day 14, 40° C.): 0%; Purity (%) at day 14 (60° C.) (solvent water, pH 1.0, day 14, 60° C.): 0%; Purity(%) at day 0 (solvent water, pH 2.0, day 0): 99.3 ± 0.2%; Purity(%) at day 14 (5° C.) (solvent water, pH 2.0, day 14, 5° C.): 96.3 ± 0.2%; Purity(%) at day 14 (25° C.) (solvent water, pH 2.0, day 14, 25° C.): 83.3 ± 0.3%; Purity(%) at day 14 (40° C.) (solvent water, pH 2.0, day 14, 40° C.): 0%; Purity (%) at day 14 (60° C.) (solvent water, pH 2.0, day 14, 60° C.): 0%; Purity(%) at day 0 (solvent water, pH 3.0, day 0): 99.5 ± 0.2%; Purity(%) at day 14 (25° C.) (solvent water, pH 3.0, day 14, 25° C.): 88.5 ± 0.2%; Purity(%) at day 14 (40° C.) (solvent water, pH 3.0, day 14, 40° C.): 2.5 ± 0.2%; Purity (%) at day 14 (60° C.) (solvent water, pH 3.0, day 14, 60° C.): 0%; Purity(%) at day 0 (solvent water, pH 3.7, day 0): 99.5 ± 0.1%; Purity(%) at day 14 (25° C.) (solvent water, pH 3.7, day 14, 25° C.): 96.1 ± 0.1%; Purity(%) at day 14 (40° C.) (solvent water, pH 3.7, day 14, 40° C.): 14.5 ± 0.3%; Purity (%) at day 14 (60° C.) (solvent water, pH 3.7, day 14, 60° C.): 0%; Purity(%) at day 0 (solvent water, pH 4.0, day 0): 99.6 ± 0.1%; Purity(%) at day 14 (25° C.) (solvent water, pH 4.0, day 14, 25° C.): 96.6 ± 0.2%; Purity(%) at day 14 (40° C.) (solvent water, pH 4.0, day 14, 40° C.): 14.5 ± 0.3%; Purity (%) at day 14 (60° C.) (solvent water, pH 4.0, day 14, 60° C.): 0%; Purity(%) at day 0 (solvent water, pH 4.3, day 0): 99.7 ± 0.1%; Purity(%) at day 14 (25° C.) (solvent water, pH 4.3, day 14, 25° C.): 96.6 ± 0.1%; Purity(%) at day 14 (40° C.) (solvent water, pH 4.3, day 14, 40° C.): 12.9 ± 0.2%; Purity (%) at day 14 (60° C.) (solvent water, pH 4.3, day 14, 60° C.): 0%; Purity(%) at day 0 (solvent water, pH 4.6, day 0): 99.5 ± 0.2%; Purity(%) at day 14 (25° C.) (solvent water, pH 4.6, day 14, 25° C.): 96.5 ± 0.2%; Purity(%) at day 14 (40° C.) (solvent water, pH 4.6, day 14, 40° C.): 3.6 ± 0.2%; Purity (%) at day 14 (60° C.) (solvent water, pH 4.6, day 14, 60° C.): 0%; Purity(%) at day 0 (solvent water, pH 5.0, day 0): 99.5 ± 0.1%; Purity(%) at day 14 (5° C.) (solvent water, pH 5.0, day 14, 5° C.): 97.3 ± 0.1%; Purity(%) at day 14 (25° C.) (solvent water, pH 5.0, day 14, 25° C.): 92.5 ± 0.2%; Purity(%) at day 14 (40° C.) (solvent water, pH 5.0, day 14, 40° C.): 1.0%; Purity (%) at day 14 (60° C.) (solvent water, pH 5.0, day 14, 60° C.): 0%; Purity(%) at day 0 (solvent water, pH 6.0, day 0): 99.4 ± 0.3%; Purity(%) at day 14 (5° C.) (solvent water, pH 6.0, day 14, 5° C.): 92.1 ± 0.2%; Purity(%) at day 14 (25° C.) (solvent water, pH 6.0, day 14, 25° C.): 84.7 ± 0.3%; Purity(%) at day 14 (40° C.) (solvent water, pH 6.0, day 14, 40° C.): 0%; Purity (%) at day 14 (60° C.) (solvent water, pH 6.0, day 14, 60° C.): 0%; Purity(%) at day 0 (solvent water, pH 7.0, day 0): 99.2 ± 0.3%; Purity(%) at day 14 (5° C.) (solvent water, pH 7.0, day 14, 5° C.): 87.9 ± 0.3%; Purity(%) at day 14 (25° C.) (solvent water, pH 7.0, day 14, 25° C.): 59.8 ± 0.3%; Purity(%) at day 14 (40° C.) (solvent water, pH 7.0, day 14, 40° C.): 0%; Purity (%) at day 14 (60° C.) (solvent water, pH 7.0, day 14, 60° C.): 0%; Purity(%) at day 14 (5° C.) (solvent water, pH 8.0, day 14, 5° C.): 57.9 ± 0.3%; Purity(%) at day 14 (25° C.) (solvent water, pH 8.0, day 14, 25° C.): 21.7 ± 0.4%; Purity(%) at day 14 (40° C.) (solvent water, pH 8.0, day 14, 40° C.): 0%; Purity (%) at day 14 (60° C.) (solvent water, pH 8.0, day 14, 60° C.): 0%
